[1] = in cyclopentyl methyl ether, 322.85 K

Compound `NC(=O)c1ccncc1` has a solubility (mole fraction) (in 1,4-dioxane, 298.55 K) of 0.014, a solubility (mole fraction) (in 1,4-dioxane, 301.45 K) of 0.015 and a solubility (mole fraction) (in 1,4-dioxane, 303.15 K) of 0.016. For the same compound, the solubility (mole fraction) (in 1,4-dioxane, 305.05 K) was 0.017, the solubility (mole fraction) (in 1,4-dioxane, 306.45 K) was 0.018 and the solubility (mole fraction) (in 1,4-dioxane, 308.25 K) was 0.019. For the same compound, the solubility (mole fraction) (in 1,4-dioxane, 309.15 K) was 0.02, the solubility (mole fraction) (in 1,4-dioxane, 309.35 K) was 0.02 and the solubility (mole fraction) (in 1,4-dioxane, 312.15 K) was 0.023. The solubility (mole fraction) (in 1,4-dioxane, 314.05 K) was 0.024, the solubility (mole fraction) (in 1,4-dioxane, 315.35 K) was 0.026 and the solubility (mole fraction) (in 1,4-dioxane, 319.45 K) was 0.028. It also gave a solubility (mole fraction) (in 1,4-dioxane, 325.55 K) of 0.036.

Compound `CC(=O)Nc1ccc(O)cc1` has a solubility (mole fraction) (in 1,4-dioxane, 334.55 K) of 0.037, a solubility (mole fraction) (in 1,4-dioxane, 335.35 K) of 0.039 and a solubility (mole fraction) (in 1,4-dioxane, 336.65 K) of 0.042. It also gave a solubility (mole fraction) (in 1,4-dioxane, 336.95 K) of 0.042, a solubility (mole fraction) (in 1,4-dioxane, 337.25 K) of 0.043 and a solubility (mole fraction) (in 1,4-dioxane, 337.85 K) of 0.045.

For `O=C(O)c1ccccc1O`, the solubility (mole fraction) (in 1,4-dioxane, 316.85 K) was 0.323, the solubility (mole fraction) (in 1,4-dioxane, 321.55 K) was 0.337 and the solubility (mole fraction) (in 1,4-dioxane, 325.55 K) was 0.35. For the same compound, the solubility (mole fraction) (in 1,4-dioxane, 330.85 K) was 0.365, the solubility (mole fraction) (in cyclopentyl methyl ether, 316.75 K) was 0.252 and the solubility (mole fraction) [1] was 0.264. It also gave a solubility (mole fraction) (in cyclopentyl methyl ether, 330.55 K) of 0.28, a solubility (mole fraction) (in cyclopentyl methyl ether, 333.05 K) of 0.289 and a solubility (mole fraction) (in cyclopentyl methyl ether, 337.25 K) of 0.299. It also gave a solubility (mole fraction) (in toluene, 305.65 K) of 0.007, a solubility (mole fraction) (in toluene, 314.15 K) of 0.011 and a solubility (mole fraction) (in toluene, 323.45 K) of 0.017. It also gave a solubility (mole fraction) (in toluene, 326.85 K) of 0.019, a solubility (mole fraction) (in toluene, 329.05 K) of 0.021 and a solubility (mole fraction) (in toluene, 332.25 K) of 0.025. It also gave a solubility (mole fraction) (in toluene, 333.35 K) of 0.027.

`Nc1ccccc1C(=O)O` gave a solubility (mole fraction) (in 1,4-dioxane, 295.65 K) of 0.251, a solubility (mole fraction) (in 1,4-dioxane, 304.55 K) of 0.275 and a solubility (mole fraction) (in 1,4-dioxane, 308.35 K) of 0.287. The solubility (mole fraction) (in 1,4-dioxane, 320.85 K) was 0.334, the solubility (mole fraction) (in 1,4-dioxane, 324.85 K) was 0.338 and the solubility (mole fraction) (in cyclopentyl methyl ether, 297.85 K) was 0.137. For the same compound, the solubility (mole fraction) (in cyclopentyl methyl ether, 308.45 K) was 0.155, the solubility (mole fraction) (in cyclopentyl methyl ether, 315.55 K) was 0.171 and the solubility (mole fraction) (in cyclopentyl methyl ether, 325.25 K) was 0.194. The solubility (mole fraction) (in cyclopentyl methyl ether, 334.25 K) was 0.223, the solubility (mole fraction) (in toluene, 295.55 K) was 0.007 and the solubility (mole fraction) (in toluene, 306.95 K) was 0.012. It also gave a solubility (mole fraction) (in toluene, 308.85 K) of 0.013, a solubility (mole fraction) (in toluene, 312.65 K) of 0.015 and a solubility (mole fraction) (in toluene, 316.75 K) of 0.018. It also gave a solubility (mole fraction) (in toluene, 322.25 K) of 0.024, a solubility (mole fraction) (in toluene, 325.95 K) of 0.026 and a solubility (mole fraction) (in toluene, 326.05 K) of 0.026.

Compound `Nc1ccc(C(=O)O)cc1` has a solubility (mole fraction) (in 1,4-dioxane, 298.25 K) of 0.068, a solubility (mole fraction) (in 1,4-dioxane, 301.25 K) of 0.073 and a solubility (mole fraction) (in 1,4-dioxane, 304.65 K) of 0.08. The solubility (mole fraction) (in 1,4-dioxane, 311.55 K) was 0.094, the solubility (mole fraction) (in 1,4-dioxane, 317.75 K) was 0.108 and the solubility (mole fraction) (in 1,4-dioxane, 320.65 K) was 0.116. For the same compound, the solubility (mole fraction) (in 1,4-dioxane, 324.85 K) was 0.127 and the solubility (mole fraction) (in 1,4-dioxane, 326.35 K) was 0.131.

Work on `NC(=O)N1c2ccccc2C=Cc2ccccc21` yielded a solubility (mole fraction) (in 1,4-dioxane, 310.35 K) of 0.022, a solubility (mole fraction) (in 1,4-dioxane, 319.95 K) of 0.032 and a solubility (mole fraction) (in 1,4-dioxane, 323.55 K) of 0.036. For the same compound, the solubility (mole fraction) (in 1,4-dioxane, 327.95 K) was 0.043, the solubility (mole fraction) (in 1,4-dioxane, 329.75 K) was 0.047 and the solubility (mole fraction) (in 1,4-dioxane, 332.45 K) was 0.052. The solubility (mole fraction) (in 1,4-dioxane, 332.95 K) was 0.054, the solubility (mole fraction) (in cyclopentyl methyl ether, 308.15 K) was 0.002 and the solubility (mole fraction) (in cyclopentyl methyl ether, 315.15 K) was 0.002. It also gave a solubility (mole fraction) (in cyclopentyl methyl ether, 323.75 K) of 0.003, a solubility (mole fraction) (in cyclopentyl methyl ether, 331.45 K) of 0.004 and a solubility (mole fraction) (in cyclopentyl methyl ether, 332.45 K) of 0.004. It also gave a solubility (mole fraction) (in toluene, 301.85 K) of 0.001, a solubility (mole fraction) (in toluene, 313.95 K) of 0.002 and a solubility (mole fraction) (in toluene, 319.65 K) of 0.003. It also gave a solubility (mole fraction) (in toluene, 325.35 K) of 0.004, a solubility (mole fraction) (in toluene, 328.55 K) of 0.004 and a solubility (mole fraction) (in toluene, 332.15 K) of 0.005. For the same compound, the solubility (mole fraction) (in toluene, 335.35 K) was 0.006.

With `NC(=O)c1cccnc1` the solubility (mole fraction) (in 1,4-dioxane, 307.25 K) was 0.025, the solubility (mole fraction) (in 1,4-dioxane, 309.95 K) was 0.027 and the solubility (mole fraction) (in 1,4-dioxane, 311.55 K) was 0.029. For the same compound, the solubility (mole fraction) (in 1,4-dioxane, 313.35 K) was 0.031 and the solubility (mole fraction) (in 1,4-dioxane, 315.45 K) was 0.033.

`c1ccc2nc3ccccc3nc2c1` showed a solubility (mole fraction) (in 1,4-dioxane, 302.55 K) of 0.031, a solubility (mole fraction) (in 1,4-dioxane, 305.55 K) of 0.033 and a solubility (mole fraction) (in 1,4-dioxane, 306.05 K) of 0.034. The solubility (mole fraction) (in 1,4-dioxane, 308.85 K) was 0.038, the solubility (mole fraction) (in 1,4-dioxane, 312.45 K) was 0.04 and the solubility (mole fraction) (in 1,4-dioxane, 313.55 K) was 0.043. It also gave a solubility (mole fraction) (in 1,4-dioxane, 318.75 K) of 0.049, a solubility (mole fraction) (in cyclopentyl methyl ether, 301.15 K) of 0.022 and a solubility (mole fraction) (in cyclopentyl methyl ether, 305.75 K) of 0.026. The solubility (mole fraction) (in cyclopentyl methyl ether, 310.05 K) was 0.029, the solubility (mole fraction) (in cyclopentyl methyl ether, 314.05 K) was 0.033 and the solubility (mole fraction) (in cyclopentyl methyl ether, 318.25 K) was 0.039. The solubility (mole fraction) (in cyclopentyl methyl ether, 326.85 K) was 0.047, the solubility (mole fraction) (in toluene, 282.95 K) was 0.015 and the solubility (mole fraction) (in toluene, 289.85 K) was 0.02. For the same compound, the solubility (mole fraction) (in toluene, 294.25 K) was 0.022, the solubility (mole fraction) (in toluene, 297.95 K) was 0.025 and the solubility (mole fraction) (in toluene, 301.35 K) was 0.027. The solubility (mole fraction) (in toluene, 312.55 K) was 0.039, the solubility (mole fraction) (in toluene, 318.25 K) was 0.046 and the solubility (mole fraction) (in toluene, 322.35 K) was 0.053. It also gave a solubility (mole fraction) (in toluene, 328.75 K) of 0.062.

For `CC(=O)Oc1ccccc1C(=O)O`, the solubility (mole fraction) (in 1,4-dioxane, 309.35 K) was 0.164, the solubility (mole fraction) (in 1,4-dioxane, 312.05 K) was 0.171 and the solubility (mole fraction) (in 1,4-dioxane, 315.55 K) was 0.183. The solubility (mole fraction) (in 1,4-dioxane, 317.65 K) was 0.191, the solubility (mole fraction) (in 1,4-dioxane, 325.75 K) was 0.218 and the solubility (mole fraction) (in 1,4-dioxane, 330.05 K) was 0.236. It also gave a solubility (mole fraction) (in 1,4-dioxane, 331.45 K) of 0.246, a solubility (mole fraction) (in 1,4-dioxane, 332.55 K) of 0.258 and a solubility (mole fraction) (in cyclopentyl methyl ether, 313.05 K) of 0.055. For the same compound, the solubility (mole fraction) (in cyclopentyl methyl ether, 314.25 K) was 0.057, the solubility (mole fraction) (in cyclopentyl methyl ether, 316.35 K) was 0.059 and the solubility (mole fraction) (in cyclopentyl methyl ether, 319.05 K) was 0.064. The solubility (mole fraction) (in cyclopentyl methyl ether, 320.55 K) was 0.068, the solubility (mole fraction) [1] was 0.074 and the solubility (mole fraction) (in cyclopentyl methyl ether, 325.75 K) was 0.079. The solubility (mole fraction) (in toluene, 321.25 K) was 0.008, the solubility (mole fraction) (in toluene, 326.65 K) was 0.01 and the solubility (mole fraction) (in toluene, 327.15 K) was 0.011. For the same compound, the solubility (mole fraction) (in toluene, 327.85 K) was 0.011 and the solubility (mole fraction) (in toluene, 330.15 K) was 0.014.

`O=C(O)c1ccc([N+](=O)[O-])cc1` showed a solubility (mole fraction) (in 1,4-dioxane, 296.95 K) of 0.036, a solubility (mole fraction) (in 1,4-dioxane, 303.25 K) of 0.048 and a solubility (mole fraction) (in 1,4-dioxane, 306.25 K) of 0.053. For the same compound, the solubility (mole fraction) (in 1,4-dioxane, 310.85 K) was 0.062, the solubility (mole fraction) (in 1,4-dioxane, 314.65 K) was 0.07 and the solubility (mole fraction) (in 1,4-dioxane, 319.35 K) was 0.08.

Compound `O=C(Oc1ccccc1C(=O)O)c1ccccc1O` has a solubility (mole fraction) (in 1,4-dioxane, 324.45 K) of 0.263, a solubility (mole fraction) (in 1,4-dioxane, 326.55 K) of 0.268 and a solubility (mole fraction) (in 1,4-dioxane, 330.35 K) of 0.278. It also gave a solubility (mole fraction) (in 1,4-dioxane, 332.55 K) of 0.284, a solubility (mole fraction) (in 1,4-dioxane, 334.95 K) of 0.291 and a solubility (mole fraction) (in 1,4-dioxane, 337.35 K) of 0.298. It also gave a solubility (mole fraction) (in cyclopentyl methyl ether, 319.75 K) of 0.148, a solubility (mole fraction) (in cyclopentyl methyl ether, 323.25 K) of 0.156 and a solubility (mole fraction) (in cyclopentyl methyl ether, 323.95 K) of 0.158. For the same compound, the solubility (mole fraction) (in cyclopentyl methyl ether, 325.65 K) was 0.16, the solubility (mole fraction) (in cyclopentyl methyl ether, 327.75 K) was 0.166 and the solubility (mole fraction) (in cyclopentyl methyl ether, 329.95 K) was 0.17. The solubility (mole fraction) (in cyclopentyl methyl ether, 333.95 K) was 0.176, the solubility (mole fraction) (in toluene, 327.75 K) was 0.016 and the solubility (mole fraction) (in toluene, 329.25 K) was 0.017. It also gave a solubility (mole fraction) (in toluene, 333.45 K) of 0.019, a solubility (mole fraction) (in toluene, 335.25 K) of 0.021 and a solubility (mole fraction) (in toluene, 335.95 K) of 0.022.

For `O=C(O)c1ccc(O)cc1`, the solubility (mole fraction) (in 1,4-dioxane, 299.65 K) was 0.08, the solubility (mole fraction) (in 1,4-dioxane, 304.15 K) was 0.088 and the solubility (mole fraction) (in 1,4-dioxane, 311.15 K) was 0.102. For the same compound, the solubility (mole fraction) (in 1,4-dioxane, 315.75 K) was 0.111, the solubility (mole fraction) (in 1,4-dioxane, 319.95 K) was 0.119 and the solubility (mole fraction) (in 1,4-dioxane, 324.55 K) was 0.131.

With `O=C(O)c1cccc(O)c1` the solubility (mole fraction) (in 1,4-dioxane, 305.35 K) was 0.188, the solubility (mole fraction) (in 1,4-dioxane, 308.85 K) was 0.194 and the solubility (mole fraction) (in 1,4-dioxane, 310.85 K) was 0.197. For the same compound, the solubility (mole fraction) (in 1,4-dioxane, 312.95 K) was 0.204, the solubility (mole fraction) (in 1,4-dioxane, 313.05 K) was 0.203 and the solubility (mole fraction) (in 1,4-dioxane, 316.75 K) was 0.211. It also gave a solubility (mole fraction) (in 1,4-dioxane, 318.75 K) of 0.214, a solubility (mole fraction) (in 1,4-dioxane, 321.45 K) of 0.219 and a solubility (mole fraction) (in 1,4-dioxane, 325.35 K) of 0.227.

Source: BigSolDB 2.1
